A word on the pIC50: it is the negative decadic logarithm of the IC50, by convention in mol/L.

pIC50: −log10 of the molar value.

The assay addresses T1, CDK2 (Homo sapiens, UniProt P24941).
T1 construct: The expressed protein is approximately 34 kDa in size; made in house; host or cells: SF9 insect cells (recombinant baculovirus, pFASTBAC)
Kind of assay: CDK2 in vitro kinase assay (cyclin A or E-dependent), 33P-ATP SPA. Format: biochemical. The conditions noted are these: recombinant cyclin-CDK2 complex (cyclin A or E, not specified); biotinylated Histone H1 peptide substrate; 1 hour at room temperature; read-out: CDK 2 IC50.
With `CCc1cnn2c(NCc3cncnc3)nc(N3CCCC[C@H]3CCO)nc12`, the pIC50 is 9.25. With `CCc1cnn2c(NCc3ccn(CC)c(=O)c3)nc(N3CCCC[C@H]3CCO)nc12` the figure was 9.28. With `Cn1cc(CNc2nc(N3CCCC[C@H]3CCO)nc3c(C4CC4)cnn23)ccc1=O`, the pIC50 was 8.51. With `CCc1cnn2c(Nc3ccc(S(C)(=O)=O)cc3)nc(N3CCCC[C@H]3CCO)nc12` the figure was 6.97.

Consider `CCc1cnn2c(NCc3ccnnc3)nc(N3CCCC[C@H]3CCO)nc12`, for which the pIC50 is 8.92. In the case of `CCc1cnn2c(NCc3cccnc3)nc(N3CCCC[C@H]3CCO)nc12` it was 9.06; in that of `CCc1cnn2c(NCc3ccc(=O)n(C)c3)nc(N3CCCC[C@H]3CCO)nc12`, 9.32.
